The record followed here is US12404243B2, “Inhibitors of the Wnt/beta-catenin pathway” (The Regents of the University of California, priority 2018, dated 2025).

In test [1] the test system is Wnt/β-catenin-mediated transcription. Briefly: Topflash reporter activity induced by LiCl in 293T/Top cells. To be noted: 20 mM LiCl, increasing concentration of JC001 (FIG. 5A). The test is classed as cell-based. As for the experimental part:
(§1) 293T cells were maintained in DMEM medium containing 10% FBS and antibiotics (penicillin and streptomycin) at 37° C. in 5% CO2. Cells were stably infected with lentiviruses expressing the TopFlash reporter (293T/Top cells). The β-catenin mutant (β-cat*, the constitutively active mutant) construct was prepared using the retroviral expression vector by standard PCR. For viral transduction, retrovirus was obtained by co-trasfection of pQCXIP-β-cat* with packaging plasmids into 293T cells following the manufacturer's instructions. 293T/Top stable cells were seeded in 10 cm dish and incubated overnight. The next day cells were treated with retroviral particles. After 12 hours, the medium was replaced with fresh medium. 2 days post virus infection, the cells were selected with puromycin for 5 days to generate the 293T/Top/β-cat* stable cell line.

In test [2] the test system is SW480 tumor xenografts. The experiment in a line: Mouse xenografts of SW480 cells. In kind it is in vivo, nude mice. The protocol:
5×10^5 of SW480 cells were injected subcutaneously into the flank area of 6-8-week-old nude mice. Tumor volume was measured by using an electronic caliper and calculated with the formula length×width^2×0.5, every 2 days. 12 days after inoculation, tumor bearing mice were administered Wnt inhibitors (dissolved in 10% DMSO+20% Cremophor EL+70% normal saline) via intraperitoneal injection for 5 days per week for 10 days at 10 mg/kg. Animal body weights were measured before drug treatments and at the end of the experiments. At the end of the experiments, animals were euthanized with carbon dioxide, followed by cervical dislocation. The tumors were dissected and weighed on the digital balance. We housed mice in pathogen-free facilities under 12-h light and 12-h dark cycle. The animal protocol and experimental procedures were approved by the Division of Laboratory Animal Medicine of UCLA and were in accordance with the US National Institute of Health guidelines.

The subject of test [3] is Wnt/β-catenin-mediated transcription. Briefly: TCF-luciferase activity assay in 293T/Top/β-cat* cells. The test is classed as cell-based. To be noted: summary of FIGS. 5A, B (293T/Top cells + LiCl) and 6A-C (293T/Top/β-cat* cells). The protocol:
as §1
293 T/Top/β-cat* cells were plated at 40%-50% confluences in 12-well plate for 8 hours and then treated with Wnt inhibitors overnight. The luciferase activity of total cell lysates was measured using Luciferase Assay System (Promega). The related TCF-luciferase activity was normalized against the protein concentration of each cell lysate sample.

For `CN(C)CCC(=O)N1C/C(=C\c2ccccc2)C(=O)/C(=C/c2ccccc2)C1` [JC001, 3,5-Di((E)-benzylidene)-1-(3-(dimethylamino)propanoyl)piperidin-4-one], the “Topflash reporter activities induced by LiCl” value in test [1] is given as “inhibit Topflash reporter activities”. In addition, in test [2] (SW480 xenografts, 10 mg/kg, day 12 to day 20 (FIG. 8A)), the tumor volumes entry was “significantly reduced tumor volumes”. Besides, the “actual tumor sizes at the end of treatment” value in test [2] (SW480 xenografts, 10 mg/kg, day 12 to day 20 (FIG. 8B)) is on record as “reduced the size of tumors recovered”. Also, the “actual tumor weights at the end of treatment” value in test [2] (SW480 xenografts, 10 mg/kg, day 12 to day 20 (FIG. 8C)) is “significantly reduced the weight of tumors recovered”. The Wnt/β-catenin-mediated transcription entry in test [3] was “significantly inhibited”.

Turning to `CN(C)CCC(=O)N1C/C(=C\c2ccc(F)c(F)c2)C(=O)/C(=C/c2ccc(F)c(F)c2)C1` [JC026, 3,5-Bis((E)-3,4-difluorobenzylidene)-1-(3-(dimethylamino)propanoyl)piperidin-4-one], in test [2] (SW480 xenografts, 10 mg/kg, day 12 to 22 (FIG. 7A)), the tumor volumes entry is “significantly reduced tumor volumes”. Also, the “tumor sizes at the end of treatment” value in test [2] (SW480 xenografts, 10 mg/kg, day 12 to 22 (FIG. 7B)) was “significantly reduced the size of tumors recovered”. Also, the “tumor weights at the end of treatment” value in test [2] (SW480 xenografts, 10 mg/kg, day 12 to 22 (FIG. 7C)) is “significantly reduced the weight of tumors recovered”. Besides, the tumor growth result in test [2] (mouse xenograft studies of human colon cancer, summary of FIGS. 7A-D, 8A-C, 9A-C) was “significantly inhibited the tumor growth”. The Wnt/β-catenin-mediated transcription entry in test [3] is “significantly inhibited”.
